Paper PMC2800189, “β-Neurexin Is a Ligand for the Staphylococcus aureus MSCRAMM SdrC” (PLoS Pathogens, 2010)
pKd: −log10 of the molar value.

Assays:
SdrCN2N3 [1] = biological target: T1, SdrCN2N3 (Staphylococcus aureus, UniProt O86487); type: binding, S. aureus; details: 10 nM fluorescein-labeled peptide, 3 hours, room temperature, dark
T1 construct: Increasing concentrations of SdrC178-496 were incubated with 10 nM labeled peptide; His tag (N); made in house; host or cells: E. coli Topp 3
Experimental: We used fluorescence polarization to determine the dissociation constant for the SdrCN2N3-Nrx1β peptide interaction. spNrxwt and spNrxscr were labeled with fluorescein and incubated with increasing concentrations of recombinant MSCRAMM.
Increasing concentrations of SdrCN2N3 or ClfBN2N3 (black circle) were incubated with 10 nM fluorescein-labelled spNrxwt peptide (black square) or spNrxscr peptide (black triangle) for 3 hours at room temperature in the dark. Equation ΔP = ΔPmax [protein]/(KD+[protein]) was used to calculate the equilibrium constant. […] After 3 hours, the mixture was incubated for another 3 hours at room temperature in the dark with 10 nM fluorescein labeled spNrxwt peptide. Fluorescence polarization was determined as described above. […]
Increasing concentrations of SdrC178-496 were incubated with 10 nM labeled peptide for 3 hours in the dark at room temperature. Polarization was measured using Luminescence Spectrometer LB50B (Perkin Elmer). The data were analyzed by non-linear regression for one binding site. The equilibrium dissociation constant was calculated using the equation ΔP = ΔPmax x [protein])/(KD + [protein]) (Eq.1) where ΔP is the change in fluorescence polarization, ΔPmax is the maximum change in fluorescence polarization and KD is the equilibrium dissociation constant of the interaction.

[2] = test system: SdrCN2N3 - Nrx47-255 interaction; test: Peptide inhibition of SdrCN2N3 binding to immobilized Nrx47-255; parameters: species or system S. aureus (SdrC); details: 0.5 µM SdrCN2N3 with increasing peptide, 2 hours, room temperature, then on immobilized Nrx47-255; mean±SD of triplicates from three experiments
Experimental: Figure 3 Structural organization of β-neurexins. (A) A cartoon representation of β-neurexin domain structure. S, signal sequence; NL, neuroligin-binding domain; Glyc, glycosylation domain; TM, transmembrane domain; PDZ, intracellular signaling domain. Also shown, are the recombinant proteins used in this study. (B) Coomassie-stained SDS-PAGE gel of GST-tagged neurexin 1β domains recombinant proteins. Increasing concentrations of SdrCA (C) and SdrCN2N3 (D) were incubated with immobilized Nrx47-255 (black square), Nrx70–255 (black triangle) or GST (black circle) for 1 hour at room temperature. […] (E) SdrC178–496 (0.5 µM) was incubated with increasing concentrations of spNrxwt peptide (black square) or spNrxscr peptide (black triangle) at room temperature. After 2 hours, the mixture was incubated with immobilized Nrx47–255. […]
Each well of Immulon 4BH plates was coated with 1 µg of recombinant Nrx47–255-GST, Nrx70–255-GSTor GST overnight at 4°C. […] Bound protein was detected with a polyclonal antibody (1∶3000) against SdrCN2N3 (H.T.I. BioProducts) followed by an anti-rabbit HRP-labeled antibody (1∶5000) (Bio-Rad Labs, Hercules, CA). Color development was performed using SigmaFast OPD (Sigma, St. Louis, MO) and the binding was measured using a microtiter plate reader (Molecular Devices) at 450 nm. […] The binding was analyzed by non-linear regression for one binding site (GraphPad Prism).

SdrCN2N3 [3] = biological target: T1, SdrCN2N3; test: Fluorescence polarization inhibition by unlabeled peptides of SdrCN2N3 binding to fluorescein-labeled spNrxwt; parameters: species or system S. aureus; details: 0.5 µM SdrCN2N3 with unlabeled peptide 3 hours, then 3 hours with 10 nM labeled spNrxwt, room temperature; mean±SD, three experiments
Experimental: After 3 hours, the mixture was incubated for another 3 hours at room temperature in the dark with 10 nM fluorescein labeled spNrxwt peptide. Fluorescence polarization was determined as described above. The values represented here are the mean±SD of triplicates from three experiments.
To eliminate the possibility that the binding was dependent of the fluorescein label introduced in the wild-type peptide, we tested the ability of unlabeled spNrxwt and spNrxscr to inhibit the binding of SdrCN2N3 to fluorescein-labeled spNrxwt. Increasing concentrations of unlabeled peptides were incubated with SdrCN2N3 for three hours at room temperature before the fluorescent polarization experiment was performed.
For inhibition assays, 0.5 µM SdrC178–496 was first incubated with increasing concentrations of unlabeled Nrxwt or unlabeled Nrxscr for 3 hours at room temperature. The mixture was then incubated for 3 hours with fluorescein-labeled Nrxwt. The results presented represent the mean±SD of three independent experiments.

[4] = biological target: Nrx_(47-255)-GST, recombinant neurexin 1β fragment (human) (UniProt P58400); test: ELISA; solid phase binding assay: 1 µg/well Nrx-GST protein or GST coated on Immulon 4BH plates, increasing concentrations of SdrC protein, 1 hour at room temperature, detected with anti-SdrC_(N2N3) serum; apparent KD (concentration for half maximum binding)
[5] = biological target: fluorescein-labeled spNrxwt (human); test: fluorescence polarisation; increasing concentrations of MSCRAMM with 10 nM fluorescein-labelled peptide, 3 hours at room temperature in the dark; one-site fit
[6] = Phage display panning with immobilized SdrGN2N3 or BSA, total bound TUs; type: binding; details: input phage 1.5×10^11, 1 µg/well
Source text: Analysis of peptides or protein segments displaced on the surface of phage is a useful method to identify partners in protein-protein interaction systems,[17],[18],[19]. To determine if this method can be used to identify ligands for MSCRAMMs from Gram-positive bacteria, we performed a validation experiment using SdrGN2N3 as bait in a screen of a commercially available 12-mer linear library (New England Biolabs Ph.D.-12 Phage Display Peptide Library). We carried out three successive rounds of panning against immobilized SdrGN2N3. To confirm that the enrichment of the phage clones between panning rounds was the result of specific interactions, the phage pool before and after each step of amplification was also tested for binding to BSA. […] We then sequenced the DNA purified from ten phage plaques obtained after the third round of panning.
NEB Ph.D.12-mer random library was incubated with immobilized SdrC N2N3, SdrG N2N3 or BSA at 1 µg/well. The input was 1.5×10^11 transducing units with a complexity of 2.7×10^9 electroporated sequences. The assay was performed according to the manufacturer's instructions. The output phage plaques were 10^4 transducing units. Wells were washed with 0.5% Tween in TBS buffer, blocked with 10% BSA and incubated with 1×10^8 transducing units of each amplified phage or insertless phage (fd-tet). To remove unbound phage, wells were washed 10 times with 0.5% Tween in TBS. Bound phage was detected with anti-M13-HRP antibody (GE Healthcare, Buckinghamshire, UK).

Chain of Nrx_(47-255)-GST, recombinant neurexin 1β fragment (human) (P58400 47-255): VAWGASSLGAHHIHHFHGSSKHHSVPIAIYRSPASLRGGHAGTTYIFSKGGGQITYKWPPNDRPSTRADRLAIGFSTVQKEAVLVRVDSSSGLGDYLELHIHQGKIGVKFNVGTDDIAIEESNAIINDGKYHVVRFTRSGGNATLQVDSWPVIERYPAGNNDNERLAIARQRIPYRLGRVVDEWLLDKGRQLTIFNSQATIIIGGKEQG
T1 sequence (O86487 178-496): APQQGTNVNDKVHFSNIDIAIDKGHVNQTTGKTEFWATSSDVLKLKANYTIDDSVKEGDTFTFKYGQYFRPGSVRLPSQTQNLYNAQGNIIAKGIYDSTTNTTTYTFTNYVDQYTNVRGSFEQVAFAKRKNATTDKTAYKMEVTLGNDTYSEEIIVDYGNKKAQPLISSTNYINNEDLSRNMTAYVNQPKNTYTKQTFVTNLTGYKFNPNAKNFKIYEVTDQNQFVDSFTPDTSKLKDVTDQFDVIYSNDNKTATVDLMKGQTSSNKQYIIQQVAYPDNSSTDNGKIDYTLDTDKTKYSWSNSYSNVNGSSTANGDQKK
Chain of SdrC N2N3 domain, recombinant SdrC_(178-496) (O86487 178-496 limits assumed): as the sequence (O86487 178-496) above
Chain of SdrC A-region, recombinant SdrC_(52-496) (O86487 52-496 limits assumed): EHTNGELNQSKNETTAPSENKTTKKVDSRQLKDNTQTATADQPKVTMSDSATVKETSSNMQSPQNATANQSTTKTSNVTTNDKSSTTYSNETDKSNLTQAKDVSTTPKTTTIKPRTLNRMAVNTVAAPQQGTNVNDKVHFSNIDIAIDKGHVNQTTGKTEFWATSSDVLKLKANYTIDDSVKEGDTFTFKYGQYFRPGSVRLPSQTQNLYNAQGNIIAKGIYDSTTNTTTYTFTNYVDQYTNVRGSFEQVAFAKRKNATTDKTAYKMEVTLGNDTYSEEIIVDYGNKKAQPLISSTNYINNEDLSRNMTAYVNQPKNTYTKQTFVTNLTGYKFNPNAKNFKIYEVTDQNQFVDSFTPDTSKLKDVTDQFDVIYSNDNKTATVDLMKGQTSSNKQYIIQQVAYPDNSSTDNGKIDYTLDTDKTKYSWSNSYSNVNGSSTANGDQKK

Substance: HSHIKLHSHGHSFGHA [spNrxscr]
- binding to SdrCN2N3 by fluorescence polarization (SdrCN2N3 [1]): did not detect a significant binding
- inhibition of SdrCN2N3-Nrx47-255 binding [2]: did not observe an inhibition
- inhibition of SdrCN2N3 binding to fluorescein-labeled spNrxwt (SdrCN2N3 [3]): but not the spNrxscr inhibited

Substance: SdrC A-region, recombinant SdrC_(52-496) (from UniProt O86487 52-496) (domain or fragment)
- pKd [4]: 6.73

Substance: SdrC N2N3 domain, recombinant SdrC_(178-496) (from UniProt O86487 178-496) (domain or fragment)
- pKd [4]: 6.90
- pKd [5]: 6.60

Substance: SdrG: fibrinogen-binding MSCRAMM of Staphylococcus epidermidis, N2N3 domain used as bait
- Total bound TUs ([6]; panning 1): 4×10^5 TUs
- Total bound TUs ([6]; panning 2): 3×10^7 TUs
- Total bound TUs ([6]; panning 3): 2×10^8 TUs
